Test results from the supplement of paper PMC11208160.

Assay: recombinant barcode read abundance after kanamycin selection (control-corrected) (log10(CPM+1)); higher = more efficient recombination; sequences stand for … in AGTGCAGAGAAAATCGGCCAGTTTTCTCTGCCTGCAGTCCGCATGCCGT…AGATTTATGCAGCGGACTGCCTTTCTCCCAAAGTGATAAACCGGACAGTATCATGGACCGGTTTTCCCGGTAATCCGTATTTGCAAGGTTGGTTTCACT; site = the 11-nt target
Procedure, shortened: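 The screen was pooled in E. coli and paired targets with IS621 bridge RNA target-binding loops. Recombination efficiency is taken from barcode counts per million at recombinant junctions, averaged and adjusted against the control. Values, in the form log10(CPM+1), come from duplicate plating on chloramphenicol/ampicillin LB agar or on chloramphenicol/ampicillin/kanamycin with 0.1 mM IPTG.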
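Note: IS621 recombinase and bridge RNA in Escherichia coli cells.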

Row | Sequence | recombinant barcode read abundance (log10)
1 | ATGAACACTTGGGTTCTAACCTGTTGCTG (site TAATGGCCTTC) | 0.0343
2 | ATGAGAGCTTGGGTTCTAACCTGTTGCCT (site ATAAGACCTAG) | 0.324
3 | ATGAGAGCTTGGGTTCTAACCTGTTGCCT (site ATGAGAGCTAG) | 1.05
4 | ATGAGGACTTGGGTTCTAACCTGTTGCCT (site ATGAGGACTAG) | 1.84
5 | ATGAGGACTTGGGTTCTAACCTGTTGCCT (site CTGAGGACTAG) | 0.362
6 | ATGAGGACTTGGGTTCTAACCTGTTGCCT (site GTGAGGACTAG) | 0.12
7 | ATGAGGACTTGGGTTCTAACCTGTTGCCT (site TTGAGGACTAG) | 0.246
8 | ATGAGGCCTTGGGTTCTAACCTGTTGCTA (site ATGAGGCCTTA) | 0.739
9 | ATGAGGCCTTGGGTTCTAACCTGTTGCTA (site TCAGAAGCTCG) | 0.159
10 | ATGATACCTTGGGTTCTAACCTGTTGCAT (site ATGATACCTAT) | 1.71
11 | ATGATACCTTGGGTTCTAACCTGTTGCAT (site CCTGGGACTTA) | 0.243
12 | ATGATATCTTGGGTTCTAACCTGTTGCCT (site AAGATATCTAG) | 0.0255
13 | ATGATATCTTGGGTTCTAACCTGTTGCCT (site ACGATATCTAG) | 0.43
14 | ATGATATCTTGGGTTCTAACCTGTTGCCT (site AGGATATCTAG) | 0.181
15 | ATGATATCTTGGGTTCTAACCTGTTGCCT (site ATGATATCTAG) | 1.5
16 | ATGCAATCTTGGGTTCTAACCTGTTGCCT (site ATGCAAACTAG) | 0.104
17 | ATGCAATCTTGGGTTCTAACCTGTTGCCT (site ATGCAACCTAG) | 0.197
18 | ATGCAATCTTGGGTTCTAACCTGTTGCCT (site ATGCAAGCTAG) | 0.236
19 | ATGCAATCTTGGGTTCTAACCTGTTGCCT (site ATGCAATCTAG) | 1.09
20 | ATGCGAGCTTGGGTTCTAACCTGTTGCGG (site ATGCGAGCTCA) | 0.873
21 | ATGCGAGCTTGGGTTCTAACCTGTTGCGG (site ATGCGAGCTCC) | 1.92
22 | ATGCGAGCTTGGGTTCTAACCTGTTGCGG (site ATGCGAGCTCG) | 0.194

Row | Sequence | recombinant barcode read abundance (log10)
23 | ATGCGAGCTTGGGTTCTAACCTGTTGCGG (site ATGCGAGCTCT) | 1.37
24 | ATGCGAGCTTGGGTTCTAACCTGTTGCTG (site ATGCGAGCTCA) | 1.19
25 | ATGCGAGCTTGGGTTCTAACCTGTTGCTG (site ATGCGAGCTCC) | 0.687
26 | ATGCGAGCTTGGGTTCTAACCTGTTGCTG (site ATGCGAGCTCG) | 0.533
27 | ATGCGAGCTTGGGTTCTAACCTGTTGCTG (site ATGCGAGCTCT) | 0.76
28 | ATGCGGTCTTGGGTTCTAACCTGTTGCCT (site ATGCGGTCTAG) | 2.02
29 | ATGCGGTCTTGGGTTCTAACCTGTTGCCT (site CTGCGGTCTAT) | 0.112
30 | ATGCTAACTTGGGTTCTAACCTGTTGCCT (site ATGCTAACTAG) | 1.62
31 | ATGCTAACTTGGGTTCTAACCTGTTGCCT (site GTGCTAACTTG) | 0.471
32 | ATGCTATCTTGGGTTCTAACCTGTTGCAG (site ATGCTATCTCT) | 0.678
33 | ATGCTATCTTGGGTTCTAACCTGTTGCAG (site CACGGTCCTTG) | 0.276
34 | ATGCTGTCTTGGGTTCTAACCTGTTGCTA (site ATGCTGTCTTA) | 1.52
35 | ATGCTGTCTTGGGTTCTAACCTGTTGCTA (site GACTACCCTAG) | 0.273
36 | ATGGCACCTTGGGTTCTAACCTGTTGCCT (site AGGGCACCTTG) | 0.035
37 | ATGGCACCTTGGGTTCTAACCTGTTGCCT (site ATGGCACCTAG) | 1.04
38 | ATGGCCTCTTGGGTTCTAACCTGTTGCTA (site ATGGCCTCTTA) | 2.5
39 | ATGGCCTCTTGGGTTCTAACCTGTTGCTA (site GCTTAAACTAG) | 0.0975
40 | ATGGGCCCTTGGGTTCTAACCTGTTGCTG (site ATGGGCCCTAA) | 0.13
41 | ATGGGCCCTTGGGTTCTAACCTGTTGCTG (site ATGGGCCCTCA) | 2.97
42 | ATGGGCCCTTGGGTTCTAACCTGTTGCTG (site ATGGGCCCTGA) | 0.127
43 | ATGGGCCCTTGGGTTCTAACCTGTTGCTG (site ATGGGCCCTTA) | 0.511
44 | ATGGGGTCTTGGGTTCTAACCTGTTGCTT (site AAGGGGTCTAA) | 0.223

Row | Sequence | recombinant barcode read abundance (log10)
45 | ATGGGGTCTTGGGTTCTAACCTGTTGCTT (site ATGGGGTCTAA) | 1.73
46 | ATGGGTCCTTGGGTTCTAACCTGTTGCCG (site ATAGGTCCTCA) | 0.536
47 | ATGGGTCCTTGGGTTCTAACCTGTTGCCG (site ATGGGTCCTCG) | 2.21
48 | ATGGTCACTTGGGTTCTAACCTGTTGCCT (site AAGGTCACTAG) | 0.354
49 | ATGGTCACTTGGGTTCTAACCTGTTGCCT (site ACGGTCACTAG) | 1.18
50 | ATGGTCACTTGGGTTCTAACCTGTTGCCT (site AGGGTCACTAG) | 0.0805
51 | ATGGTCACTTGGGTTCTAACCTGTTGCCT (site ATGGTCACTAG) | 2.54
52 | ATGGTGTCTTGGGTTCTAACCTGTTGCCT (site ATGGTGACTAG) | 0.109
53 | ATGGTGTCTTGGGTTCTAACCTGTTGCCT (site ATGGTGCCTAG) | 0.768
54 | ATGGTGTCTTGGGTTCTAACCTGTTGCCT (site ATGGTGGCTAG) | 0.0539
55 | ATGGTGTCTTGGGTTCTAACCTGTTGCCT (site ATGGTGTCTAG) | 2.75
56 | ATGTACACTTGGGTTCTAACCTGTTGCCT (site ATGGATACTAG) | 0.0684
57 | ATGTACACTTGGGTTCTAACCTGTTGCCT (site ATGTACACTAG) | 1.55
58 | ATGTAGTCTTGGGTTCTAACCTGTTGCCT (site ATGTAGTCTAG) | 1.89
59 | ATGTAGTCTTGGGTTCTAACCTGTTGCCT (site TTGTCGTCTAG) | 0.24
60 | ATGTCCTCTTGGGTTCTAACCTGTTGCCT (site ATGACCTCTAG) | 0.145
61 | ATGTCCTCTTGGGTTCTAACCTGTTGCCT (site ATGCCCTCTAG) | 0.872
62 | ATGTCCTCTTGGGTTCTAACCTGTTGCCT (site ATGGCCTCTAG) | 0.276
63 | ATGTCCTCTTGGGTTCTAACCTGTTGCCT (site ATGTCCTCTAG) | 1.5
64 | ATGTCTGCTTGGGTTCTAACCTGTTGCCT (site ATGTCTGCTAG) | 0.475
65 | ATGTCTGCTTGGGTTCTAACCTGTTGCCT (site GATGGACCTTA) | 0.0105
66 | ATGTGAACTTGGGTTCTAACCTGTTGCTG (site ATGTGAACTCA) | 1.02

Row | Sequence | recombinant barcode read abundance (log10)
67 | ATGTGAACTTGGGTTCTAACCTGTTGCTG (site GCAGCCTCTAC) | 0.0648
68 | ATGTGCTCTTGGGTTCTAACCTGTTGCCT (site AAGTGCTCTAG) | 0.204
69 | ATGTGCTCTTGGGTTCTAACCTGTTGCCT (site ACGTGCTCTAG) | 0.253
70 | ATGTGCTCTTGGGTTCTAACCTGTTGCCT (site AGGTGCTCTAG) | 0.22
71 | ATGTGCTCTTGGGTTCTAACCTGTTGCCT (site ATGTGCTCTAG) | 2.07
72 | ATGTTAGCTTGGGTTCTAACCTGTTGCCT (site ATGTAGGCTAG) | 0.208
73 | ATGTTAGCTTGGGTTCTAACCTGTTGCCT (site ATGTTAGCTAG) | 1.65
74 | ATTCGAGCTTGGGTTCTAACCTGTTGCAT (site ATTCGAGCTAT) | 1.18
75 | ATTCGAGCTTGGGTTCTAACCTGTTGCAT (site CGGGCGTCTTA) | 0.203
76 | ATTCGGCCTTGGGTTCTAACCTGTTGCCT (site AGTCGGCCTAG) | 0.038
77 | ATTCGGCCTTGGGTTCTAACCTGTTGCCT (site ATTCGGCCTAG) | 0.0683
78 | ATTGCTCCTTGGGTTCTAACCTGTTGCCT (site ATTGCTCCTAG) | 0.416
79 | ATTGCTCCTTGGGTTCTAACCTGTTGCCT (site ATTGGTCCTAT) | 0.126
80 | ATTGCTCCTTGGGTTCTAACCTGTTGCTT (site ATTGCTCCTAA) | 0.106
81 | ATTGCTCCTTGGGTTCTAACCTGTTGCTT (site GGTGCTCCTAA) | 0.722
82 | ATTGGTCCTTGGGTTCTAACCTGTTGCCT (site ATAGGTCCTAG) | 0.994
83 | ATTGGTCCTTGGGTTCTAACCTGTTGCCT (site ATCGGTCCTAG) | 0.27
84 | ATTGGTCCTTGGGTTCTAACCTGTTGCCT (site ATGGGTCCTAG) | 0.187
85 | ATTGGTCCTTGGGTTCTAACCTGTTGCCT (site ATTGGTCCTAG) | 1.66
86 | ATTGGTTCTTGGGTTCTAACCTGTTGCCT (site ATTGGATCTAG) | 0.114
